Here are results for one compound from patent publication US6958340B2, “Tyrosine kinase inhibitors” (Merck & Co., Inc., priority 2001, dated 2005).

As to `Cc1cc(C)cc(Nc2nccc(-n3ccnc3-c3ccccc3)n2)c1` [Compound 1-24, N-(3,5-dimethylphenyl)-4-(2-phenyl-1H-imidazol-1-yl)pyrimidin-2-amine], the melting point (in general, the temperature of the solid-liquid transition) stood at 183 °C.
